These results are taken from US20240101549A1, “N-(2-(4-CYANOTHIAZOLIDIN-3-YL)-2-OXOETHYL)-QUINOLINE-4-CARBOXAMIDES” (AstraZeneca AB, priority 2020, published 2024).

A short description of data set [1]: Metabolic stability in human liver microsomes (HLM). In kind it is in vitro ADME. The note with it: n = 1 or average of n = 2-3. (Liver microsomes are vesicles of endoplasmic reticulum, rich in cytochrome P450 enzymes.)
Protocol: Metabolic stability in HLM was measured as described in J Comput Aided Mol Des 2015, 29, 795.
For data set [2], the system named is Rat Hepatocytes (rHep). The data set is described as follows: Metabolic stability in rat hepatocytes (rHep). In kind it is in vitro ADME. The note with it: n = 1 or geometric mean of n = 2-3.
The nature of data set [3]: Caco-2 cell permeability. In kind it is in vitro ADME. The settings on record: human. A general note: Caco-2 cells form a polarised layer with tight junctions and transporters.
Protocol: (§1) Caco-2 cell permeability was measured as described in Mol Pharm 2017, 14, 1601.
Data set [4] can be described thus: Kinetic solubility. In kind it is physicochemical. The note with it: kinetic from dmso stock.
Protocol: Kinetic solubility was measured as described in Comput Aided Mol Des 2015, 29, 795.
For data set [5], the system named is Caco-2 cell. Kind of data set: Caco-2 cell permeability. The settings on record: bidirectional (ABBA); for Caco2 Bidirectional (ABBA) A to B Papp / Caco2 Bidirectional (ABBA) B to A Papp: n = 1 or average of n = 2-4. In kind it is in vitro ADME.
Protocol: as §1
Data set [6] addresses FAP (Macaca fascicularis, UniProt A0A2K5VGH4). Kind of data set: FAP plasma inhibition assay, cynomolgus plasma. The settings on record: cynomolgus plasma diluted 1:40, 75 μM Ala-Pro-AMC; n = 1; read-out: FAP Cyno Plasma IC50. In kind it is biochemical. The protocol:
D. FAP Plasma Inhibition Assay This assay was adapted from the method described in Example 237 for detection of FAP target engagement enzyme activity in plasma. […] Compounds were tested using 10 CR, 3 fold dilution series from 500 nM FAC. Two replicates for each assay point were run on the same plate. A fluorescence blank read was taken before substrate addition. […] Plates were incubated for 40 min at rt in the dark. […] IC50 values were determined by plotting % inhibition versus log compound concentration.

The mark [7] stands for this setting: Caco-2, AB intrinsic, n = 1 or average of n = 2-4, read-out: Caco2 AB Intrinsic Papp.

pIC50: −log10 of the molar value. Converted amounts (≈) assume the structure as drawn. Like-named read-outs stand apart in the source and are kept apart here.

Chain of FAP (A0A2K5VGH4 entry or part of it): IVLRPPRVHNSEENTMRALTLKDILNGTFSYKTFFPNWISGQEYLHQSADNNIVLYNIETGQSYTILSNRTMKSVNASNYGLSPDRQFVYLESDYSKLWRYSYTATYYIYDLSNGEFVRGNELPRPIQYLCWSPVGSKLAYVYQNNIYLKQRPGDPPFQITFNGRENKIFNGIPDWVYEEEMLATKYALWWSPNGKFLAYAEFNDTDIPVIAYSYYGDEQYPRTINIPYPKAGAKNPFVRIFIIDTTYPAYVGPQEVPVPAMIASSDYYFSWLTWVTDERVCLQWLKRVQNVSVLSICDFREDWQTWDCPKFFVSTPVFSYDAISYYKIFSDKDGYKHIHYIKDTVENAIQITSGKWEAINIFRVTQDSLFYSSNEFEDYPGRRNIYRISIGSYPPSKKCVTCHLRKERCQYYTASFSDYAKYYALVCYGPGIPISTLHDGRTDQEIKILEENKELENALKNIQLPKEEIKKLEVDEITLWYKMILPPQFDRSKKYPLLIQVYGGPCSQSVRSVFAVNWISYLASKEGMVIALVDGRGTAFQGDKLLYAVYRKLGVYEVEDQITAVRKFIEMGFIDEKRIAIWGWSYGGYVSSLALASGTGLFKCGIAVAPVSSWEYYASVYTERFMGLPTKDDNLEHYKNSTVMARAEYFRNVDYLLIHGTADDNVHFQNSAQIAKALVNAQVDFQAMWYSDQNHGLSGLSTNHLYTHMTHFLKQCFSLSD

What is called microsomal CLint is a measure of how fast metabolising enzymes remove a compound, apart from limits set by blood flow. A lower microsomal CLint goes with slow turnover. Turning to `COC1CCCN(c2ccc3nccc(C(=O)NCC(=O)N4CSC[C@H]4C#N)c3c2)C1` (mixture of isomers) [Example 41, N-(2-((R)-4-Cyanothiazolidin-3-yl)-2-oxoethyl)-6-((RS)-3-methoxypiperidin-1-yl)quinoline-4-carboxamide], the microsomal CLint in data set [1] stood at 30 µL/min/mg. Further, in data set [2], the “rHep CLint” value amounted to 12 μL/min/1E6. Further, the Papp A→B in data set [3] (setting [7]) was found to be 16 ×10⁻⁶ cm/s.

By solubility is commonly meant the concentration that dissolves in the medium under given conditions. As for `N#C[C@@H]1CSCN1C(=O)CNC(=O)c1ccnc2ccc(-c3ccnn3C3CCCCO3)cc12` (mixture of isomers) [Example 176], the “rHep CLint” value in data set [2] is given as 15 μL/min/1E6. Also, in data set [4], the concentration in solution (solubility) was 800 µM (≈ 381 µg/mL).

Regarding `CC1(F)CCN(c2ccc3nccc(C(=O)NCC(=O)N4CSC[C@H]4C#N)c3c2)C1` (mixture of isomers) [Example 198, N-(2-((R)-4-Cyanothiazolidin-3-yl)-2-oxoethyl)-6-((RS)-3-fluoro-3-methylpyrrolidin-1-yl)quinoline-4-carboxamide], in data set [1], the intrinsic metabolic clearance (microsomal CLint) turned out to be 20 µL/min/mg. The “rHep CLint” value in data set [2] turned out to be 22 μL/min/1E6.

As for `N#C[C@@H]1CSCN1C(=O)CNC(=O)c1ccnc2ccc(N3CC(O)C(F)(F)C3)cc12` (mixture of isomers) [Example 224, N-(2-((R)-4-Cyanothiazolidin-3-yl)-2-oxoethyl)-6-((RS)-3,3-difluoro-4-hydroxypyrrolidin-1-yl)quinoline-4-carboxamide], in data set [1], the microsomal CLint is < 3 µL/min/mg. Besides, the “rHep CLint” value in data set [2] is listed as <1 μL/min/1E6. For the same molecule, in data set [3] (setting [7]), the Papp A→B came to 1.2 ×10⁻⁶ cm/s. For the same molecule, in data set [4], the solubility was found to be 50 µM (≈ 22.4 µg/mL).

In the case of `N#C[C@@H]1CSCN1C(=O)CNC(=O)c1ccnc2ccc(N3CCOCC3C(F)(F)F)cc12` (single isomer, unassigned) [Example 85, N-(2-((R)-4-Cyanothiazolidin-3-yl)-2-oxoethyl)-6-((R*)-3-(trifluoromethyl)-morpholino)quinoline-4-carboxamide], in data set [2], the “rHep CLint” value was found to be 35 μL/min/1E6. This molecule yielded a solubility in data set [4] of 800 µM (≈ 384 µg/mL).

With `N#C[C@@H]1CSCN1C(=O)CNC(=O)c1ccnc2ccc(N3CCCC3C3CC3)cc12` (single isomer, unassigned) [Example 199, N-(2-((R)-4-Cyanothiazolidin-3-yl)-2-oxoethyl)-6-((R*)-2-cyclopropyl-pyrrolidin-1-yl)quinoline-4-carboxamide], the microsomal CLint in data set [1] is > 300 µL/min/mg. In addition, in data set [2], the “rHep CLint” value was determined as 250 μL/min/1E6.

Consider `N#C[C@@H]1CSCN1C(=O)CNC(=O)c1ccnc2ccc(N3CCCC3C3CC3)cc12` (single isomer, unassigned) [Example 200, N-(2-((R)-4-Cyanothiazolidin-3-yl)-2-oxoethyl)-6-((R*)-2-cyclopropyl-pyrrolidin-1-yl)quinoline-4-carboxamide], for which the “HLM CLint” value in data set [1] was >300 µL/min/mg. Further, the “rHep CLint” value in data set [2] is on record as >300 μL/min/1E6.

As for `CC1CCN(c2ccc3nccc(C(=O)NCC(=O)N4CSC[C@H]4C#N)c3c2)C1=O` (single isomer, unassigned) [Example 201, N-(2-((R)-4-Cyanothiazolidin-3-yl)-2-oxoethyl)-6-((R*)-3-methyl-2-oxopyrrolidin-1-yl)quinoline-4-carboxamide], the intrinsic metabolic clearance (microsomal CLint) in data set [1] is < 3 µL/min/mg. For the same molecule, the “rHep CLint” value in data set [2] is <1 μL/min/1E6. The Papp A→B in data set [3] (setting [7]) was determined as 4.8 ×10⁻⁶ cm/s. In data set [4], this molecule yielded a solubility of 90 µM (≈ 38.1 µg/mL).

Consider `CC1CCN(c2ccc3nccc(C(=O)NCC(=O)N4CSC[C@H]4C#N)c3c2)C1=O` (single isomer, unassigned) [Example 202, N-(2-((R)-4-Cyanothiazolidin-3-yl)-2-oxoethyl)-6-((R*)-3-methyl-2-oxopyrrolidin-1-yl)quinoline-4-carboxamide], for which, in data set [2], the “rHep CLint” value is on record as <1 μL/min/1E6.

A word on the Papp B→A: it is how fast a substance crosses the layer from the basolateral side. Take `CC1CCCN(c2ccc3nccc(C(=O)NCC(=O)N4CSC[C@H]4C#N)c3c2)C1=O` (single isomer, unassigned) [Example 203, N-(2-((R)-4-Cyanothiazolidin-3-yl)-2-oxoethyl)-6-((R*)-3-methyl-2-oxopiperidin-1-yl)quinoline-4-carboxamide]: the “rHep CLint” value in data set [2] amounted to 2.9 μL/min/1E6. Besides, the Papp A→B in data set [3] (Caco-2, bidirectional (ABBA), A to B, n = 1 or average of n = 2-4, read-out: Caco2 Bidirectional (ABBA) A to B Papp) is 0.4 ×10⁻⁶ cm/s. The apparent permeability from basolateral to apical (Papp B→A) in data set [3] (Caco-2, bidirectional (ABBA), B to A, n = 1 or average of n = 2-4, read-out: Caco2 Bidirectional (ABBA) B to A Papp) was determined as 8 ×10⁻⁶ cm/s. In data set [3] (Caco-2, bidirectional (ABBA), read-out: Caco2 Bidirectional (ABBA) Efflux Ratio), the efflux ratio was found to be 20.

Consider `CC1CCCN(c2ccc3nccc(C(=O)NCC(=O)N4CSC[C@H]4C#N)c3c2)C1=O` (single isomer, unassigned) [Example 204, N-(2-((R)-4-Cyanothiazolidin-3-yl)-2-oxoethyl)-6-((R*)-3-methyl-2-oxopiperidin-1-yl)quinoline-4-carboxamide], for which the intrinsic metabolic clearance (microsomal CLint) in data set [1] is 8 µL/min/mg. In addition, the “rHep CLint” value in data set [2] is listed as 1.8 μL/min/1E6.

`N#C[C@@H]1CSCN1C(=O)CNC(=O)c1ccnc2ccc(N3C[C@@H](F)[C@H](F)C3)cc12` (single isomer, unassigned) [Example 214] displayed a microsomal CLint in data set [1] of 27 µL/min/mg. This molecule also came in with a solubility in data set [4] of 230 µM (≈ 99.2 µg/mL).

Turning to `N#C[C@@H]1CSCN1C(=O)CNC(=O)c1ccnc2ccc(N3CC4(CCC4)C3)cc12` [Example 17, (R)—N-(2-(4-Cyanothiazolidin-3-yl)-2-oxoethyl)-6-(2-azaspiro[3.3]heptan-2-yl)quinoline-4-carboxamide], the intrinsic clearance (microsomal CLint) in data set [1] worked out at 48 µL/min/mg.

Take `CC1(C)COC12CN(c1ccc3nccc(C(=O)NCC(=O)N4CSC[C@H]4C#N)c3c1)C2` [Example 18, (R)—N-(2-(4-Cyanothiazolidin-3-yl)-2-oxoethyl)-6-(3,3-dimethyl-1-oxa-6-azaspiro[3.3]heptan-6-yl)quinoline-4-carboxamide]: the Papp A→B in data set [3] (setting [7]) was 13 ×10⁻⁶ cm/s. Besides, in data set [5], the “Caco2 Bidirectional (ABBA) Efflux Ratio” value was found to be 34, the “Caco2 Bidirectional (ABBA) A to B Papp” value is on record as 0.90 1E−6 · cm/s and the “Caco2 Bidirectional (ABBA) B to A Papp” value is 31 1E−6 · cm/s.

With `COC1(C)CCN(c2ccc3nccc(C(=O)NCC(=O)N4CSC[C@H]4C#N)c3c2)CC1` [Example 42, (R)—N-(2-(4-Cyanothiazolidin-3-yl)-2-oxoethyl)-6-(4-methoxy-4-methylpiperidin-1-yl)quinoline-4-carboxamide], the solubility in data set [4] came to 850 µM (≈ 386 µg/mL).

Consider `N#C[C@@H]1CSCN1C(=O)CNC(=O)c1ccnc2ccc(N3CCOC4(CCOCC4)C3)cc12` [Example 99, (R)—N-(2-(4-cyanothiazolidin-3-yl)-2-oxoethyl)-6-(1,9-dioxa-4-azaspiro[5.5]undecan-4-yl)quinoline-4-carboxamide], for which, in data set [5], the “Caco2 Bidirectional (ABBA) Efflux Ratio” value stood at 46, the “Caco2 Bidirectional (ABBA) A to B Papp” value is 0.46 1E−6 · cm/s and the “Caco2 Bidirectional (ABBA) B to A Papp” value is given as 21 1E−6 · cm/s.

With `N#C[C@@H]1CSCN1C(=O)CNC(=O)c1ccnc2ccc(N3CC4(CC(F)C4)C3)cc12` [Example 155, (R)—N-(2-(4-Cyanothiazolidin-3-yl)-2-oxoethyl)-6-(6-fluoro-2-azaspiro[3.3]heptan-2-yl)quinoline-4-carboxamide], in data set [5], the “Caco2 Bidirectional (ABBA) Efflux Ratio” value is reported as 6.5, the “Caco2 Bidirectional (ABBA) A to B Papp” value is given as 4.2 1E−6 · cm/s and the “Caco2 Bidirectional (ABBA) B to A Papp” value is 27 1E−6 · cm/s.

For orientation: pIC50 means the IC50 on a negative log10 scale, so that one unit is a factor of ten. `N#C[C@@H]1CSCN1C(=O)CNC(=O)c1ccnc2ccc(N3CC4(COC4)C3)cc12` [Example 166, (R)—N-(2-(4-Cyanothiazolidin-3-yl)-2-oxoethyl)-6-(2-oxa-6-azaspiro[3.3]heptan-6-yl)quinoline-4-carboxamide]: in data set [6], the pIC50 is 9.52. The Papp A→B in data set [3] (setting [7]) turned out to be 2 ×10⁻⁶ cm/s. Besides, in data set [5], the “Caco2 Bidirectional (ABBA) Efflux Ratio” value amounted to 24, the “Caco2 Bidirectional (ABBA) A to B Papp” value was 0.56 1E−6 · cm/s and the “Caco2 Bidirectional (ABBA) B to A Papp” value is recorded as 13 1E−6 · cm/s.
